Experiments:
Format in all cases: cell-based
hVR4 = molecular target: T1, hVR4 (Homo sapiens, UniProt Q9HBA0); assay: FLIPR intracellular calcium assay, HEK293 cells transiently expressing hVR4 ([…]4); settings: for pEC50 hVR4: HEK293 cells transiently expressing hVR4, Fluo-3 calcium, FLIPR, mean ± s.e.mean, n = 3-5, IA = inactive; for effect on intracellular calcium in HEK293-hVR4 cells: result in words
T1 construct: expressed in transfected cells; host or cells: HEK293 (transient expression)
Method: HEK293 cells transiently expressing hVR1 or hVR4 were seeded into FLIPR96 plates at 25,000 cells/well and cultured overnight. The cells were then loaded in medium containing 4 microM Fluo-3 for 2 hrs, at room temperature, in the dark. The cell plates were then washed 4× with Tyrode containing 1.5 mM calcium and 0.2% BSA. Agonist and antagonist plates were prepared in the same buffer. Cells were preincubated with either antagonist or buffer at room temperature for 30 mins. Agonists additions and calcium measurements were made in the FLIPR (Smart et al., (2000) Br J. Pharmacol. 129, 227-230).

[1] = tested on: HEK293 cells transfected with empty vector; assay: FLIPR intracellular calcium assay, HEK293 cells transfected with empty vector; settings: result in words
wild type HEK293 cells = assay: FLIPR intracellular calcium assay, wild type HEK293 cells; settings: result in words
hVR1 = molecular target: T2, hVR1 (Homo sapiens, UniProt Q8NER1); settings: for activity at VR1: result in words; for pEC50 hVR1: HEK293 cells transiently expressing hVR1, Fluo-3 calcium, FLIPR, mean ± s.e.mean, n = 3-5, IA = inactive
T2 construct: expressed in transfected cells; host or cells: HEK293 (transient expression)
T2 sequence (Q8NER1 whole entry): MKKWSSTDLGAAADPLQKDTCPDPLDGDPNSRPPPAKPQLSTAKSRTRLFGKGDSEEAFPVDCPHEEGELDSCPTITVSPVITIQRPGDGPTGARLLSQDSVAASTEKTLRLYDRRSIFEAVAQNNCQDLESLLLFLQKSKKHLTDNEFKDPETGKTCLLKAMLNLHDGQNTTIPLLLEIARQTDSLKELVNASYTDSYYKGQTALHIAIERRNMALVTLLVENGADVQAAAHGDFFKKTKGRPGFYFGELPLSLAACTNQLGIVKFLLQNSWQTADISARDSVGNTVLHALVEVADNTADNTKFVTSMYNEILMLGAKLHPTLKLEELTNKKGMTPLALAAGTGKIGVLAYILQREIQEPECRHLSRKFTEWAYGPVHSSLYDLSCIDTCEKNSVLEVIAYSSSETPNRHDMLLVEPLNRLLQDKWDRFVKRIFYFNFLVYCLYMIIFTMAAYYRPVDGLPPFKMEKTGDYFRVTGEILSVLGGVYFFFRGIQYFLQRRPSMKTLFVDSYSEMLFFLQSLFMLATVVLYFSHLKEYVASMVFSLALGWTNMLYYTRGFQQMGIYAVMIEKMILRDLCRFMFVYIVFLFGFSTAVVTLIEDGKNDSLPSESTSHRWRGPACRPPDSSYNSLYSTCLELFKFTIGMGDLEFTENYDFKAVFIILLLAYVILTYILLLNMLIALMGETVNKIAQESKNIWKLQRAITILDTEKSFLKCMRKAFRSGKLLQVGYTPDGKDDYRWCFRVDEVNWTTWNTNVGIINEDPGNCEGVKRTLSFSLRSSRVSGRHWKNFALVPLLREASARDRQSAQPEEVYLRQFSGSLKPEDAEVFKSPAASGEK

T1 sequence (Q9HBA0 whole entry): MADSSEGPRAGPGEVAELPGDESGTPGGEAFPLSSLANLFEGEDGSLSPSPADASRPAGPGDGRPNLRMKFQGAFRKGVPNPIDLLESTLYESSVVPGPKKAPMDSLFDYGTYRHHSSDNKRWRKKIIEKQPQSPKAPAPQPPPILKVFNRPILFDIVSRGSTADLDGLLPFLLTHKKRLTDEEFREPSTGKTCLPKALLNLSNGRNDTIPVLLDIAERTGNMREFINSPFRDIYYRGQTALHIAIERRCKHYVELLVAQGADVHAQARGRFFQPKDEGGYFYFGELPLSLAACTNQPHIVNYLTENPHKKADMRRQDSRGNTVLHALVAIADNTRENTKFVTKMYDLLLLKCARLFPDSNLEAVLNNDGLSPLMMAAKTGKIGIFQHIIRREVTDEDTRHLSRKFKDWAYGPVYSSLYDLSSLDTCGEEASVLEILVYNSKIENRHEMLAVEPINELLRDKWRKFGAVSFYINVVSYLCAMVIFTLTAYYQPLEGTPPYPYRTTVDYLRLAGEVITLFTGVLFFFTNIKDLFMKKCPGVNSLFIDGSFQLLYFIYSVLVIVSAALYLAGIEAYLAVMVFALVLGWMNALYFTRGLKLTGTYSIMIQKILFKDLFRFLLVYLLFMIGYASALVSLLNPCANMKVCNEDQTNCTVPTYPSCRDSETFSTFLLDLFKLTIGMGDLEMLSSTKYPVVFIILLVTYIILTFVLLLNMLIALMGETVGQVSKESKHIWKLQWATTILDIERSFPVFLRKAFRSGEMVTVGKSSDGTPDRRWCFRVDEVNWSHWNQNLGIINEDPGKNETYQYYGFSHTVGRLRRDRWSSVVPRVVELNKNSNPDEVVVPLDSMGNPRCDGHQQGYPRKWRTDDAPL

## CCCCCCCCCC(=O)O[C@@H]1[C@@H](C)[C@@]2(O)[C@@H](C=C(CO)C[C@@]3(O)C(=O)C(C)=C[C@@H]23)[C@@H]2C(C)(C)[C@]12OC(=O)CCCCCCCCC [4αPDD, 4α-phorbol-12,13-didecanoate]
hVR4
  pEC50 hVR4: 5.73 ± 0.06
  effect on intracellular calcium in HEK293-hVR4 cells: increased intracellular calcium
hVR4; VR4 versus VR1, result in words
  selectivity (conclusion): In conclusion, 4αPDD acts as a VR4 selective agonist.
[1]
  effect on intracellular calcium in cells transfected with empty vector: without effect
Wild type HEK293 cells
  effect on intracellular calcium in wild type HEK293 cells: without effect
hVR1
  activity at VR1: inactive

## CCCCCCCCCCCCCC(=O)O[C@@H]1[C@@H](C)[C@@]2(O)[C@@H](C=C(CO)C[C@]3(O)C(=O)C(C)=C[C@@H]23)[C@@H]2C(C)(C)[C@]12OC(C)=O [PMA, phorbol 12-myristate 13-acetate]
hVR4
  pEC50 hVR4: 6.64 ± 0.06
  effect on intracellular calcium in HEK293-hVR4 cells: increased intracellular calcium
[1]
  effect on intracellular calcium in cells transfected with empty vector: without effect
Wild type HEK293 cells
  effect on intracellular calcium in wild type HEK293 cells: without effect
hVR1
  pEC50 hVR1: 7.86 ± 0.06
  activity at VR1: partial agonist
hVR1; at VR1, compared to capsaicin and RTX
  Emax: 0.46

## C=C(C)[C@]12C[C@@H](C)[C@@]34O[C@](Cc5ccccc5)(O[C@@H]1[C@@H]3C=C(COC(=O)Cc1ccc(O)c(OC)c1)C[C@]1(O)C(=O)C(C)=C[C@@H]41)O2 [RTX]
hVR1
  pEC50 hVR1: 8.93 ± 0.20

From patent US20060205641A1, “[…]4 polypeptides and […]4 polynucleotides” (SmithKline Beecham plc, priority 1999, published 2006)
